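Five concentrations, 48 hours, 96-well plates. Here, GI50 denotes the concentration required for 50% inhibition of growth. Definition used: TGI = concentration required for complete inhibition of growth.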
Assays:
Test in all cases: DTP human tumour cell line panel, 48 h
M14 melanoma = test system: M14 melanoma
SF-268 CNS = test system: SF-268 CNS
SNB-75 CNS = test system: SNB-75 CNS
HT29 colon = test system: HT29 colon
SK-MEL-5 melanoma = test system: SK-MEL-5 melanoma
U251 CNS = test system: U251 CNS
A549 NSCLC = test system: A549 NSCLC
SF-539 CNS = test system: SF-539 CNS
A498 renal = test system: A498 renal
HCT-116 colon = test system: HCT-116 colon

Structure (SMILES)	TGI (M14 melanoma) [nM]	TGI (SF-268 CNS) [nM]	TGI (SNB-75 CNS) [nM]	TGI (HT29 colon) [nM]	TGI (SK-MEL-5 melanoma) [nM]	TGI (U251 CNS) [nM]	TGI (A549 NSCLC) [nM]	TGI (SF-539 CNS) [nM]	TGI (A498 renal) [nM]	TGI (HCT-116 colon) [nM]	GI50 (M14 melanoma) [nM]	GI50 (SF-268 CNS) [nM]	GI50 (SNB-75 CNS) [nM]	GI50 (HT29 colon) [nM]	GI50 (SK-MEL-5 melanoma) [nM]	GI50 (U251 CNS) [nM]	GI50 (A549 NSCLC) [nM]	GI50 (SF-539 CNS) [nM]	GI50 (A498 renal) [nM]	GI50 (HCT-116 colon) [nM]
Cc1ccc2c(c1)CN(C(=O)CCC(=O)OCc1ccccc1)c1ccc(C)cc1CN2C(=O)CCC(=O)OCc1ccccc1	> 100000	> 100000	62600	> 100000	> 100000	> 100000	> 100000	> 100000	> 100000	> 100000										
Cc1ccc(C(=O)Nc2ccc(CN3CCN(C)CC3)c(C(F)(F)F)c2)cc1C#Cc1cnc(N)c2ccccc12	701	1260	1520	1410	1620	1120	1260	1410	1300	1010	134	403	726	367	835	348	447	729	310	336
Fc1ccc(-c2nn3ncccc3c2-c2ccnc(Nc3ccc4c(c3)OCCO4)n2)cc1	> 25000	> 25000	> 25000	> 13600	9510	> 25000	> 25000	> 25000	17100	7090	7810	7360		933	3990	7720	2710	6590	4040	3050
COC(=O)C12C3C4C1C1C2C3C41NC(=O)c1csc([C@@H](C[C@H](C(C)C)N(C)C(=O)[C@@H](NC(=O)[C@H]2CCCCN2C)C2CC2)OC(C)=O)n1 (stereo partly specified)		> 33300	> 33300	> 33300	526	> 33300	> 33300	110	> 10600	> 33300	25.3	35.6	5.95	6.58	9.77	52.7	157	5.74	116	12.3
COc1cc2c3c(n(CCNCCCNCCn4c5c(c6cc(OC)c(OC)cc6c4=O)C(=O)c4ccccc4-5)c(=O)c2cc1OC)-c1ccccc1C3=O	6520		6810		22500	1490	24200	15500	14500	1160	1380	64.8	1600	44.8	4930	73.3	187	199	3120	25.4
COc1cc2c3c(n(C)c(=O)c2cc1OC)-c1cc2c(cc1/C3=C\CNCCCN)OCO2	5310	10800	9470	> 100000	2710	1580	> 25100	7290	12100	4190	585	762	923	376	1030	71.7	1430	834	3840	107
Nc1ncn(C2CC(O)C(CO)O2)c(=O)n1 (stereo unspecified)	> 375000	> 375000	> 288000	> 375000	254000	> 307000	> 375000	158000	> 332000	> 375000										
COc1ccc(CNc2nc3cc(C(F)(F)F)ccc3nc2C)cc1OC	44600	> 100000	61400	> 100000	31300	> 100000	> 100000	> 100000	83600	> 100000										
C=C[C@H]1C[C@@H]2C[C@@H]3[C@H]4C/C=C\C(=O)NCCCC5NC(=O)C(=C(O)/C=C/[C@@H]4CC(=O)[C@H]3[C@@H]2[C@H]1C)C5=O (stereo partly specified)	822	334	289	3580	309	3070	1910	666	369	1100	253	172	150	1880	161	1610	620	248	175	287
CS(=O)(=O)c1cc(=O)c2ccccc2s1	3440	32100	31000	16200	28500	37600	35700	27600	31400	4050										
O=C(/C=C/c1c(O)ccc2ccccc12)c1ccccc1	> 100000	> 100000	4520	30200	> 100000	> 100000	> 100000	> 100000	> 100000	> 100000										
